What was measured:
[1] = Clearance from the kidneys after administration to mice; format: in vivo, BALB/c mice; settings: administered to balb/s mice; Cu complex
Source text: For example, the functional group of R^5 may be hydrophobic or may be hydrophilic. Having a hydrophobic entity will encourage clearance of a compound of the present invention that is complexed with a metal ion or metal ion radionuclide through the liver, while a hydrophilic entity will predominantly clear through the kidney.

[2] = 64Cu radiolabelling at room temperature; kinetically inert complexes; cited from earlier work

SMILES	clearance / retention in the kidneys [1]	stability of 64Cu complex to excess EDTA challenge [2]
NC12CNCCNCC(N)(CNCCNC1)CNCCNC2.[Cu+2] [Cu-diamsar]	rapidly cleared from the kidneys	
C1CNCC2CNCCNCC(CN1)CNCCNC2.[Cu+2] [Cu-sar]	retained for a relatively longer period of time in the kidneys	
Nc1ccc(CNC23CNCCNCC(N)(CNCCNC2)CNCCNC3)cc1 [Sarar, 1-N-(4-aminobenzyl)-3,6,10,13,16,19-hexaazabicyclo[6.6.6]eicosane-1,8-diamine]		stable to excess EDTA challenge

Source: patent publication US11535623B2, “Cryptate compounds” (Australian Nuclear Science and Technology Organisation, priority 2011, dated 2022)
